Source: patent US20260055088A1, “HETEROCYCLIC COMPOUND, METHOD FOR PREPARING SAME, AND PHARMACEUTICAL USE THEREOF” (Jiangsu Hengrui Pharmaceuticals Co., Ltd., priority 2022, published 2026)

Assays:
[1] = molecular target: Nav1.8 ion channel stably expressed on HEK293 cells (Homo sapiens (Human), UniProt Q9Y5Y9); assay: Inhibitory activity against Nav1.8, manual patch clamp; type: cell-based; settings: resting protocol (-80 mV to 10 mV), 1 μM TTX, read-out: IC50 for the inhibition of Nav1.8 channel activity
[2] = Pharmacokinetic evaluation in SD rats (i.g.); type: in vivo; settings: male, Sprague-Dawley (SD), rat, plasma, po, 2.0 mg/kg; for AUC(0-t): read-out: Area under curve AUC0-t; for CL/F: read-out: Clearance rate CL/F; for half-life: read-out: Half-life T½ (converted); for Cmax: read-out: Plasma concentration Cmax
Protocol: SD rats were used as test animals. After intragastric (i.g.) administration of the example compounds to SD rats, the plasma concentrations of the compounds at different time points were determined by the LC/MS/MS method. The pharmacokinetic behaviors of the compounds of the present disclosure in SD rats were studied, and their pharmacokinetic profiles were evaluated.
Compounds 16 and 32: Four male SD rats, provided by Vital River Laboratory Animal Technology Co., Ltd. The animals were fasted overnight and then intragastrically dosed.
Compound 38: Two male SD rats, provided by Zhejiang Vital River Laboratory Animal Technology Co., Ltd. The animals were fasted overnight and then intragastrically dosed.
Compounds 16 and 32: Certain amounts of the test compounds were weighed out, and 5% DMSO+5% tween 80+90% normal saline was added to prepare 0.2 mg/mL colorless clear solutions.
Compound 38: A certain amount of the test compound was weighed out, and 25% PEG400+75% (10% TPGS+1% HPMC K100LV) was added to prepare a 5 mg/mL colorless clear solution.
Compounds 16 and 32: The administration dose was 2 mg/kg, and the administration volume was 10.0 mL/kg.
Compound 38: The administration dose was 50 mg/kg, and the administration volume was 10.0 mL/kg.
0.2-mL blood samples were collected from the orbit before administration and 0.25, 0.5, 1.0, 2.0, 4.0, 6.0, 8.0, 11.0, and 24.0 h after administration, placed into EDTA-K2 anticoagulation test tubes, and centrifuged at 10,000 rpm for 1 min (4° C.), and the plasma was separated within 1 h and stored with dry ice before analysis. The procedures from the blood collection to the centrifugation were performed under ice-bath conditions. Access to food was given 2 h after administration.
Compounds 16 and 32: Determination of the plasma concentrations of the test compounds in SD rats after the compounds were administered at different concentrations: A 25-μL sample of the SD rat plasma collected at each time point after administration was taken, and 200 μL of acetonitrile containing an internal standard (verapamil, 100 ng/mL) was added. The mixture was vortexed and centrifuged at 3700 rpm for 10 min. 0.1 μL of the supernatant was taken for LC/MS/MS analysis.
Compound 38: Determination of the plasma concentration of the test compound in SD rats after the compound was administered at different concentrations: A 25-μL sample of the SD rat plasma collected at each time point after administration was taken, and 200 μL of acetonitrile containing an internal standard (dexamethasone, 100 ng/mL) was added. The mixture was vortexed and centrifuged at 4000 rpm for 15 min. 1 μL of the supernatant was taken for LC/MS/MS analysis.

Row | Compound | IC50 [1] [nM] | bioavailability [2] [%] | AUC(0-t) [2] [ng·h/mL] | CL/F [2] [mL/min/kg] | half-life [2] [h] | Cmax [2] [ng/mL]
1 | COc1c([C@H]2[C@H](C(=O)Nc3ccnc(/C(N)=N/O)c3)O[C@@](C)(C(F)(F)F)[C@H]2C)ccc(F)c1F [Example 32] | 0.93 | 24.7 | 321 | 96.9 | 2.6 | 85.7
2 | CO/N=C(\N)c1cc(NC(=O)[C@@H]2O[C@@](C)(C(F)(F)F)[C@@H](C)[C@H]2c2ccc(F)c(F)c2OC)ccn1 [Example 16] | 0.33 | 51.3 | 329 | 101 | 9.1 | 120
